How the values were obtained:
[1] = molecular target: T1, human recombinant HDAC1 (Homo sapiens, UniProt Q13547); assay: In vitro HDAC enzyme activity inhibition assay, HDAC1 (HDAC Fluorimetric Drug Discovery Kit); type: biochemical; details: human recombinant HDAC1, Fluor de Lys-SIRT1 substrate 10 μM, 30° C. for 60 minutes
T1 construct: purchased Enzo Life Sciences, Inc. BML-SE456
Procedure: (§1) In order to confirm the selectivity of the compounds represented by Chemical Formula I of the present invention to HDAC6 through HDAC1 and HDAC6 enzyme activity inhibition experiments, a comparison experiment was performed using the material that has already been developed as a control group.
(§2) HDAC enzyme activity was measured using the HDAC Fluorimetric Drug Discovery Kit (Enzo Life Sciences, Inc., BML-AK511, 516). For the HDAC1 enzyme activity test, human recombinant HDAC1 (BML-SE456) was used as an enzyme source and Fluor de Lys®-SIRT1 (BNL-KI177) was used as a substrate. After dispensing 5-fold diluted compounds into a 96-well plate, 0.3 μg of enzyme and 10 μM substrate were added to each well of the plate and allowed to react at 30° C. for 60 minutes. Next, Fluor de Lys® Developer II (BML-KI176) was added and reacted for 30 minutes to complete the reaction, and then the fluorescence values (Ex 360, Em 460) were measured using a multi-plate reader (Flexstation 3, Molecular Device). The HDAC6 enzymes were tested using human recombinant HDAC6 (382180) from Calbiochem Inc., according to the same protocol as the HDAC1 enzyme activity test method. With respect to the final result values, respective IC50 values were calculated using GraphPad Prism 4.0 program, and results thereof were summarized in Table 5 below.

[2] = molecular target: T2, human recombinant HDAC6 (Homo sapiens, UniProt Q9UBN7); assay: In vitro HDAC enzyme activity inhibition assay, HDAC6 (HDAC Fluorimetric Drug Discovery Kit); type: biochemical; details: for HDAC6 Selectivity (fold): HDAC6 versus HDAC1; for IC50: human recombinant HDAC6, same protocol as the HDAC1 test
T2 construct: purchased Calbiochem Inc. 382180
T2 sequence (Q9UBN7 1-1215): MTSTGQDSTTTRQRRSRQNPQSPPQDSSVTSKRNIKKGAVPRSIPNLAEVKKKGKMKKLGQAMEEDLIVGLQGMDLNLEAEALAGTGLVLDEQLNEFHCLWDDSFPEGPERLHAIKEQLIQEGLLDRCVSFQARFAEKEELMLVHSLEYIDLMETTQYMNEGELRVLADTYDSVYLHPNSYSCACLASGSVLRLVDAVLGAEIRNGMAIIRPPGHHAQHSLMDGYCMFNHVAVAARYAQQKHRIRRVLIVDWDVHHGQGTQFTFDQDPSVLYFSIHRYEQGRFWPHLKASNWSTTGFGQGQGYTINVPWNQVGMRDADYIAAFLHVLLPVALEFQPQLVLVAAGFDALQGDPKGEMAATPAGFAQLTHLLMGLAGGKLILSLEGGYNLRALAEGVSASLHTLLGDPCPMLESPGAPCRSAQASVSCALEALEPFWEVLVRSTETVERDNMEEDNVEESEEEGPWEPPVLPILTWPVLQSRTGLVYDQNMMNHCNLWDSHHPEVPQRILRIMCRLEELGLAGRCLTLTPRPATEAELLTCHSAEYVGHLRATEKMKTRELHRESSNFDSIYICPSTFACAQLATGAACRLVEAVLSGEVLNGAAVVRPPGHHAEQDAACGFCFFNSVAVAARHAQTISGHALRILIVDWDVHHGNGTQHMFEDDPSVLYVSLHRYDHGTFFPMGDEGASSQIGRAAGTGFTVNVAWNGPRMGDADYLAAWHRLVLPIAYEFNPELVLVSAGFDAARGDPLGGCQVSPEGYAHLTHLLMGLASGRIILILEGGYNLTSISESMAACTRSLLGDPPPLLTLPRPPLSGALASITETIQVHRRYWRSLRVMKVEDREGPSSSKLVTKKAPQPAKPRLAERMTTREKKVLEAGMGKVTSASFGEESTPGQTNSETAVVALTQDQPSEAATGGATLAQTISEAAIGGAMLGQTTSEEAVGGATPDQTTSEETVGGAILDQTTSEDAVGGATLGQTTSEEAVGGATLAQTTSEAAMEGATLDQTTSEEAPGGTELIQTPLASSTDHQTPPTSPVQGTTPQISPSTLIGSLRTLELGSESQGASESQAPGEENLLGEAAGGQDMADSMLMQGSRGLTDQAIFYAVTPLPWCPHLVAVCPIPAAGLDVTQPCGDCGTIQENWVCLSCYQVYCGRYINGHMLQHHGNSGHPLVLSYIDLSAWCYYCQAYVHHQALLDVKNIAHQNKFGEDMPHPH
Procedure: as §1, §2

T1 sequence (Q13547 whole entry): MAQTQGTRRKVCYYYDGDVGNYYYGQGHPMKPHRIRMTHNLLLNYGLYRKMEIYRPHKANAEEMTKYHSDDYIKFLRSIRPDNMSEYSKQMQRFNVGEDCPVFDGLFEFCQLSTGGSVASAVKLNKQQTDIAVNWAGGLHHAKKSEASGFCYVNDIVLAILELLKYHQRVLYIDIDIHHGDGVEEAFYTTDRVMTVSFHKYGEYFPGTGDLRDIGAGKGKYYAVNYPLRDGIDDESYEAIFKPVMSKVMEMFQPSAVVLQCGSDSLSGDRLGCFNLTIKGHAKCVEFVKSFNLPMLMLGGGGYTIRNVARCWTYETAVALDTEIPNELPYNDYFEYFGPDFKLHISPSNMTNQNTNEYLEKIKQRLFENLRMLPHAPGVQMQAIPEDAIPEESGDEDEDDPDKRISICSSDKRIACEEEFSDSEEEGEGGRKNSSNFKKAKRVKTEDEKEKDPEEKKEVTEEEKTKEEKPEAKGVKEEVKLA

IC50 [1] | HDAC6 Selectivity (fold) [2] | IC50 [2] | Structure (SMILES)
> 50000 nM | 318 fold | 157 nM | Fc1ccc(NCc2cn3ccc(-c4nnc(C(F)F)o4)cc3n2)cc1F [Compound 3671, N-((7-(5-(difluoromethyl)-1,3,4-oxadiazol-2-yl)imidazo[1,2-a]pyridin-2-yl)methyl)-3,4-difluoroaniline]
> 50000 nM | 184 fold | 272 nM | O=C(C1CN(C(=O)C(F)(F)F)C1)N(Cc1cn2ccc(-c3nnc(C(F)F)o3)cc2n1)c1ccccc1 [Compound 4172, N-((7-(5-(difluoromethyl)-1,3,4-oxadiazol-2-yl)imidazo[1,2-a]pyridin-2-yl)methyl)-N-phenyl-1-(2,2,2-trifluoroacetyl) azetidine-3-carboxamide]
> 50000 nM | 696 fold | 71.8 nM | O=C(C1CCN(C2COC2)CC1)N(Cc1cn2ccc(-c3nnc(C(F)F)o3)cc2n1)c1ccccc1 [Compound 3783, N-((7-(5-(difluoromethyl)-1,3,4-oxadiazol-2-yl)imidazo[1,2-a]pyridin-2-yl)methyl)-1-(oxetan-3-yl)-N-phenylpiperidine-4-carboxamide]
> 50000 nM | 306 fold | 163 nM | O=C(C1CCN(c2ncccn2)CC1)N(Cc1cn2ccc(-c3nnc(C(F)F)o3)cc2n1)c1cccc(F)c1 [Compound 4157, N-((7-(5-(difluoromethyl)-1,3,4-oxadiazol-2-yl)imidazo[1,2-a]pyridin-2-yl)methyl)-N-(3-fluorophenyl)-1-(pyrimidin-2-yl)piperidine-4-carboxamide]
> 50000 nM | 214 fold | 233 nM | O=C(N1CCN(C2CCC2)CC1)N(Cc1cn2ccc(-c3nnc(C(F)F)o3)cc2n1)c1cccc(F)c1 [Compound 4087, 4-cyclobutyl-N-((7-(5-(difluoromethyl)-1,3,4-oxadiazol-2-yl)imidazo[1,2-a]pyridin-2-yl)methyl)-N-(3-fluorophenyl)piperazine-1-carboxamide]
> 50000 nM | 341 fold | 147 nM | Cc1cccc(NCc2cn3ccc(-c4nnc(C(F)F)o4)cc3n2)c1 [Compound 3679, N-((7-(5-(difluoromethyl)-1,3,4-oxadiazol-2-yl)imidazo[1,2-a]pyridin-2-yl)methyl)-3-methylaniline]
> 50000 nM | 91 fold | 547 nM | O=C(C1CCN(c2ccccn2)CC1)N(Cc1cn2ccc(-c3nnc(C(F)F)o3)cc2n1)c1ccccc1 [Compound 4131, N-((7-(5-(difluoromethyl)-1,3,4-oxadiazol-2-yl)imidazo[1,2-a]pyridin-2-yl)methyl)-N-phenyl-1-(pyridin-2-yl)piperidine-4-carboxamide]
> 50000 nM | 168 fold | 298 nM | COC(=O)N1CC(C(=O)N(Cc2cn3ccc(-c4nnc(C(F)F)o4)cc3n2)c2ccccc2)C1 [Compound 4174, methyl 3-(((7-(5-(difluoromethyl)-1,3,4-oxadiazol-2-yl)imidazo[1,2-a]pyridin-2-yl)methyl)(phenyl)carbamoyl) azetidine-1-carboxylate]
> 50000 nM | 379 fold | 132 nM | O=C(C1CN(C2CCCCC2)C1)N(Cc1cn2ccc(-c3nnc(C(F)F)o3)cc2n1)c1cccc(F)c1 [Compound 4194, 1-cyclohexyl-N-((7-(5-(difluoromethyl)-1,3,4-oxadiazol-2-yl)imidazo[1,2-a]pyridin-2-yl)methyl)-N-(3-fluorophenyl) azetidine-3-carboxamide]
> 50000 nM | 190 fold | 263 nM | O=C(N1CCN(C2CC3(CCC3)C2)CC1)N(Cc1cn2ccc(-c3nnc(C(F)F)o3)cc2n1)c1cccc(F)c1 [Compound 4620]
> 50000 nM | 147 fold | 340 nM | O=C(C1CN(C2CCCCC2)C1)N(Cc1cn2ccc(-c3nnc(C(F)F)o3)cc2n1)c1ccccc1 [Compound 4164, 1-cyclohexyl-N-((7-(5-(difluoromethyl)-1,3,4-oxadiazol-2-yl)imidazo[1,2-a]pyridin-2-yl)methyl)-N-phenylazetidine-3-carboxamide]
> 50000 nM | 426 fold | 117 nM | CC(=O)c1cccc(NCc2cn3ccc(-c4nnc(C(F)F)o4)cc3n2)c1 [Compound 3669]
> 50000 nM | 360 fold | 139 nM | CN(C)C(=O)N1CCN(C(=O)N(Cc2cn3ccc(-c4nnc(C(F)F)o4)cc3n2)c2cccc(F)c2)CC1 [Compound 4099, N1-((7-(5-(difluoromethyl)-1,3,4-oxadiazol-2-yl)imidazo[1,2-a]pyridin-2-yl)methyl)-N1-(3-fluorophenyl)-N4,N4-dimethylpiperazine-1,4-dicarboxamide]
> 50000 nM | 740 fold | 67.6 nM | CN1CCC(C(=O)N(Cc2cn3ccc(-c4nnc(C(F)F)o4)cc3n2)c2ccccc2)CC1 [Compound 3782, N-((7-(5-(difluoromethyl)-1,3,4-oxadiazol-2-yl)imidazo[1,2-a]pyridin-2-yl)methyl)-1-methyl-N-phenylpiperidine-4-carboxamide]
> 50000 nM | 216 fold | 232 nM | O=C(N1CCN(C2CCOCC2)CC1)N(Cc1cn2ccc(-c3nnc(C(F)F)o3)cc2n1)c1cccc(F)c1 [Compound 4090, N-((7-(5-(difluoromethyl)-1,3,4-oxadiazol-2-yl)imidazo[1,2-a]pyridin-2-yl)methyl)-N-(3-fluorophenyl)-4-(tetrahydro-2H-pyran-4-yl)piperazine-1-carboxamide]
> 50000 nM | 215 fold | 232 nM | O=C(CO)N1CCN(C(=O)N(Cc2cn3ccc(-c4nnc(C(F)F)o4)cc3n2)c2cccc(F)c2)CC1 [Compound 4094, N-((7-(5-(difluoromethyl)-1,3,4-oxadiazol-2-yl)imidazo[1,2-a]pyridin-2-yl)methyl)-N-(3-fluorophenyl)-4-(2-hydroxyacetyl)piperazine-1-carboxamide]
> 50000 nM | 185 fold | 270 nM | O=C(C1CCC1)N1CCN(C(=O)N(Cc2cn3ccc(-c4nnc(C(F)F)o4)cc3n2)c2cccc(F)c2)CC1 [Compound 4095, 4-(cyclobutanecarbonyl)-N-((7-(5-(difluoromethyl)-1,3,4-oxadiazol-2-yl)imidazo[1,2-a]pyridine-2-yl)methyl)-N-(3-fluorophenyl)piperazine-1-carboxamide]
> 50000 nM | 125 fold | 400 nM | FC(F)c1nnc(-c2ccn3cc(CNc4ccc(C(F)(F)F)cc4)nc3c2)o1 [Compound 3673, N-((7-(5-(difluoromethyl)-1,3,4-oxadiazol-2-yl)imidazo[1,2-a]pyridin-2-yl)methyl)-4-(trifluoromethyl)aniline]
> 50000 nM | 631 fold | 79.2 nM | FC(F)c1nnc(-c2ccn3cc(Cc4ccccc4)nc3c2)o1 [Compound 3009, 2-(2-benzylimidazo[1,2-a]pyridin-7-yl)-5-(difluoromethyl)-1,3,4-oxadiazole]

From patent publication US12522601B2, “1,3,4-oxadiazole derivative compounds as histone deacetylase 6 inhibitor, and the pharmaceutical composition comprising the same” (CHONG KUN DANG PHARMACEUTICAL CORP., priority 2020, dated 2026)
